Reference: PubChem BioAssay (NCI)
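Dose response: 5 concentrations. Exposure: 48 h. Format: 96-well plates. Endpoint: linear interpolation; highest concentration if not reached. GI50 is the concentration that inhibits growth by half. TGI denotes the concentration required for complete inhibition of growth.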

Key:
Experiment in all cases: DTP human tumour cell line panel, 48 h
ACHN renal = tested on: ACHN renal
HCT-15 colon = tested on: HCT-15 colon
HL-60(TB) leukemia = tested on: HL-60(TB) leukemia
MOLT-4 leukemia = tested on: MOLT-4 leukemia
NCI-H460 lung = tested on: NCI-H460 lung
NCI/ADR-RES ovarian = tested on: NCI/ADR-RES ovarian
SK-MEL-5 melanoma = tested on: SK-MEL-5 melanoma
SR leukemia = tested on: SR leukemia
UACC-62 melanoma = tested on: UACC-62 melanoma
A498 renal = tested on: A498 renal

| SMILES | TGI (ACHN renal) [µM] | TGI (HCT-15 colon) [µM] | TGI (HL-60(TB) leukemia) [µM] | TGI (MOLT-4 leukemia) [µM] | TGI (NCI-H460 lung) [µM] | TGI (NCI/ADR-RES ovarian) [µM] | TGI (SK-MEL-5 melanoma) [µM] | TGI (SR leukemia) [µM] | TGI (UACC-62 melanoma) [µM] | TGI (A498 renal) [µM] | GI50 (A498 renal) [µM] | GI50 (ACHN renal) [µM] | GI50 (HCT-15 colon) [µM] | GI50 (NCI-H460 lung) [µM] | GI50 (NCI/ADR-RES ovarian) [µM] | GI50 (SK-MEL-5 melanoma) [µM] | GI50 (UACC-62 melanoma) [µM] |
| --- | --- | --- | --- | --- | --- | --- | --- | --- | --- | --- | --- | --- | --- | --- | --- | --- | --- |
| COc1c(C(=O)/C(=N/Nc2ccc(C(=O)O)cc2)C(C)=O)c(O)cc2occc12 | > 100 | > 100 | > 100 | > 100 | > 100 | > 100 | > 100 | > 100 | > 100 |  |  |  |  |  |  |  |  |
| O=C1C=C(NCCc2ccc(O)c([N+](=O)[O-])c2)C(=O)c2[nH]cnc21 | > 100 | > 100 | 47.8 | 38.2 | 69.6 | > 100 | 30.3 |  | 40.7 | > 100 |  |  |  |  |  |  |  |
| CCOP(=O)(OCC)C(c1ccc(F)cc1)N(C(=O)NC(F)(F)F)c1ccc(F)cc1 (configuration not stated) | > 100 | > 100 | > 100 | > 100 | > 100 | > 100 | > 100 | > 100 |  |  |  |  |  |  |  |  |  |
| CC1[C@@]2(O[C@@H]3C=C4C5CCC6Cc7nc8c(nc7C[C@@]6(C)C5C[C@H](O)[C@@]4(C)[C@]13O)CC1CCc3c(cc4c5c3C(O)C[C@H]5[C@@H](C)C3(O4)OC(C)(C)CC3O)[C@]1(C)C8)O[C@@](C)(CO)C[C@@H]2O (some centres not stated) |  | > 3.72 | > 3.72 |  | > 3.72 | > 3.72 | > 3.72 |  | 0.748 | 0.59 |  |  |  |  |  |  |  |
| O=C1c2c(c3c4cc(F)ccc4oc3c3[nH]c4ccccc4c23)C(=O)N1O | 1.73 | > 100 |  |  | 10.6 | > 100 | 2.6 |  | 3.41 | 5.2 | 1.23 | 0.398 | 1.81 | 0.565 | 2.9 | 1.23 | 1.48 |
| O=C1/C(=C/c2cccc([N+](=O)[O-])c2)N=C(c2ccccc2)N1c1nc2ccc(Sc3ccccc3)cc2[nH]1 | > 100 | > 100 |  | > 100 | > 100 | > 100 | > 100 | > 100 | > 100 | > 100 |  |  |  |  |  |  |  |
| COc1cc2ncnc(NS(=O)(=O)c3cc4ccccc4s3)c2cc1OC | > 100 | > 100 |  | > 100 | > 100 | > 100 | > 100 | > 100 | > 100 | > 100 |  |  |  |  |  |  |  |
| COc1ccc(N2C(=O)C3ON(Cc4ccc(CC(N)=O)cc4)C(c4c5ccccc5c(C)c5ccccc45)C3C2=O)cc1 (configuration not stated) | 77.9 | 74.9 | 51.2 | 6.41 | 30.8 | > 100 |  | 36.8 | > 100 | > 100 |  |  |  |  |  |  |  |
| CCN(CC)Cc1cc(N=Nc2c(O)ccc3c(N=Nc4ccc(O)c(CN(CC)CC)c4)c(O)ccc23)ccc1O | 7.71 | 4.7 |  | 12.1 | 7.54 | 33 | 7.42 | 8.53 | 16.2 | 27.9 |  |  |  |  |  |  |  |
| CC1=C[P+](c2ccccc2)(c2ccccc2)c2ccccc2O1 | > 100 | > 100 | 8.76 | 21 | > 100 | > 100 | 13.5 | 8.28 | 41.1 |  |  |  |  |  |  |  |  |
| O=C(CC(C(=O)c1ccsc1)c1cccs1)c1ccccc1 (configuration not stated) | > 100 | > 100 | > 100 | > 100 | > 100 |  | > 100 | > 100 | > 100 | > 100 |  |  |  |  |  |  |  |
| N=c1oc2ccc3ccccc3c2cc1-c1nc2ccccc2c(=O)[nH]1 | 34 | > 100 | > 100 | > 100 | > 100 | > 100 | > 100 | > 100 | 44.1 |  |  |  |  |  |  |  |  |
| Cc1[nH]c(=O)nc(N/N=C/c2c3ccccc3c(Cl)c3ccccc23)c1C(=O)Nc1ccc(Cl)cc1 | > 100 | > 100 | 44.7 | > 100 | > 100 |  | > 100 | > 100 | > 100 | > 100 |  |  |  |  |  |  |  |
| CCC1c2[nH]c3ccccc3c2C[C@H]2C(=O)NC(C)C(=O)N12 (some centres not stated) | > 100 | > 100 | > 100 | > 100 |  | > 100 | > 100 | > 100 | > 100 | > 100 |  |  |  |  |  |  |  |
| CCC1(O)C(=O)OCc2c1cc1n(c2=O)Cc2cc3cc4c(cc3nc2-1)OCO4 (configuration not stated) |  | 19 | 0.479 | 0.178 | 0.0156 | 0.0277 | 0.02 | 3.79 | 0.0509 | 0.0816 |  |  |  |  |  |  |  |
| C(=N\NC1=NCCCCN1)/c1ccc2ccccc2c1 | > 100 | 87.5 | 62.8 | 53.2 | 62.9 | > 100 | 31.3 |  | 79.8 |  |  |  |  |  |  |  |  |
| CC1=C(C)C(=O)OC(C(C)(O)C2(O)CC3OC34C3CC(O)C56OC5C=CC(=O)C6(C)C3CCC42C)C1 (configuration not stated) | 2.45 | 3.85 |  | 4.49 | 4.23 |  | > 24.1 |  | 3.15 | 7.81 |  |  |  |  |  |  |  |
| CCCCn1c(=O)[nH]c2c(N)ncnc21 | > 100 | > 100 | > 100 |  | > 100 | > 100 | > 100 |  | > 100 | > 100 |  |  |  |  |  |  |  |
| O=[N+]([O-])c1ccc(C[P+]2(c3ccccc3)CCCCC2)cc1 (tested in a mixture with another compound) | > 100 | > 100 | > 100 | > 100 | > 100 |  | 84.2 |  | > 100 | > 100 |  |  |  |  |  |  |  |
| CCC1(CC)C(=O)NC(=O)NC1=S | > 100 | > 100 | > 100 | > 100 | > 100 |  |  |  | > 100 | > 100 |  |  |  |  |  |  |  |
| C/C(Cc1ccc2c(c1)OCO2)=N\N=c1\sc2ccccc2n1C | > 100 | > 100 | > 100 | > 100 |  | > 100 | > 100 |  | > 100 | > 100 |  |  |  |  |  |  |  |
| O=[N+]([O-])c1ccc2c(c1)nc1n2C(c2c(F)cccc2F)SC1 (configuration not stated) | > 100 | > 100 | > 100 | > 100 | > 100 | > 100 | > 100 | > 100 | > 100 |  |  |  |  |  |  |  |  |
